Each molecule was assayed against T1, recombinant human PDE 10A1 (Homo sapiens, UniProt Q9Y233) (assay: PDE10 biochemical assay (two-step Thompson and Appleman method or SPA)). Settings: not given.
T1 construct: made in house; host or cells: Sf9 insect cells, baculoviral system
T1 sequence (Q9Y233 1-779 isoform Q9Y233-1): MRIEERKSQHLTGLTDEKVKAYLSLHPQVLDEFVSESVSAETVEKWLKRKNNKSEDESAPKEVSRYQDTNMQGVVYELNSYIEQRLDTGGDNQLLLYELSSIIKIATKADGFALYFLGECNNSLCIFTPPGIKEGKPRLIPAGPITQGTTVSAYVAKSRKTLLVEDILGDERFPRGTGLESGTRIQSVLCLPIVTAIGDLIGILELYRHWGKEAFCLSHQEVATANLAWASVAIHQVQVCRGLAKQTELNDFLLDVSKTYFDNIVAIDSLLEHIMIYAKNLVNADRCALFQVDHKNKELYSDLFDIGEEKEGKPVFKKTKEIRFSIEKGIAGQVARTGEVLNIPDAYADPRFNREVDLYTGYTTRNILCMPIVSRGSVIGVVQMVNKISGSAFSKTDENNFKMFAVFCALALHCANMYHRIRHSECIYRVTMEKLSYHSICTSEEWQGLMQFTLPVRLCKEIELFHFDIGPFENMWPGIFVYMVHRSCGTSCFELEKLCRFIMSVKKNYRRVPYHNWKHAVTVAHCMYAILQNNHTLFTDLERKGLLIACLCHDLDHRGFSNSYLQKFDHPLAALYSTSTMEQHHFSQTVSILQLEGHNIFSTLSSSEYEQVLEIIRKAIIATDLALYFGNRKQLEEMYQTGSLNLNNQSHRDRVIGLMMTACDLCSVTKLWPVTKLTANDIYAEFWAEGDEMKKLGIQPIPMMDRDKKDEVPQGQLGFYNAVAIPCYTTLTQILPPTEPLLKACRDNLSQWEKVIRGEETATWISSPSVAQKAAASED
Description: After the appropriate incubation time, the reaction is terminated by heating. The mixture is then subjected to treatment with snake venom phosphatase. […] IC50 values can be calculated by performing the experiment at several concentrations using standard graphical means. A detailed description of the actual technique used for IC50 assays as set forth in following Examples.
The phosphodiesterase (PDE) assay was performed using recombinant human PDE 1A3, 2A3, 3 catalytic region, 4 catalytic region, 5 catalytic region, 7A, 8A, 9A2, 10A1 and 11A1 enzymes expressed in a baculoviral system using Sf9 cells. PDE activity was measured using a modification of the two-step method of Thompson and Appleman described above which was adapted for 96 well plate format. […] Reactions were initiated with enzyme and incubated with (^3H)-substrate and substance for 20 minutes at 30° C. The reaction was terminated by denaturing the enzyme (heating the reaction to 70° C. for 2 minutes). The reaction was then cooled at 4° C. for 10 minutes before the addition of snake venom (Crotalus atrox, 0.2 mg/ml) for 10 minutes at 30° C., thus allowing non-specific hydrolysis of the tritiated substrate. Separation of the remaining unhydrolysed cyclic nucleotide was achieved by a batch binding of the mixture to activated Dowex (200 μl) anion exchange resin. The anion exchange resin bound the charged nucleotides, leaving only hydrolysed (^3H) substrate in the soluble fraction. The soluble fraction (50 μl) was then added to microscint-20 (200 μl) and counted on a Top Count Plate reader. Radioactivity units were plotted against inhibitor concentration and IC50 values obtained using Graph Pad Prism software.
Alternatively, phosphodiesterase activity was measured by scintillation proximity assay (SPA) with [^3H]-cGMP as substrate. Purified PDE10 was diluted and stored in 25 mM Tris-Cl (pH 8.0)/100 mM NaCl/0.05% Tween 20/50% glycerol/3 mM DTT. Assays contained (final concentrations): 50 mM Tris-Cl (pH 7.5)/8.3 mM MgCl2/1.7 mM EGTA/0.5 mg/ml BSA/5% DMSO and 2 ng PDE10 in a final volume of 0.1 mL. Inhibition was evaluated at 8 concentrations in duplicate. Reactions were initiated by addition of enzyme and were terminated after 20 minutes at 30° C. by the addition of 50 μl of SPA beads containing Zn^++. The mixture was shaken, allowed to settle for 3 hours, and counted in a Wallac plate counter. Results (net cpm) were fitted to a four parameter logistic model using Excel Solver®.
In the case of `CCOc1cc(/C=N/NC(=O)C(OC)c2ccc(Cl)cc2)ccc1OC` (stereo not drawn) [Compound 12-7], the IC50 is reported as ≤ 1000 nM.

Same assay, conditions: PDE10 inhibition; read-out: IC50
For `COc1cc(/C=N/NC(=O)C(OC)c2cccc3ccccc23)cc(OC)c1OC` (stereo not drawn) [Compound 12-13], the IC50 was ≤ 1000 nM. With `COc1cc(/C=N/NC(=O)C(OC)c2ccc(N3CCCC3)cc2)cc(OC)c1Cl` (stereo not drawn) [Compound 12-126] the IC50 was ≤ 1000 nM. With `CCOc1cc(/C=N/NC(=O)C(OC)c2ccc(Cl)cc2)cc(Cl)c1OC` (stereo not drawn) [Compound 12-5] the IC50 was ≤ 1000 nM. `CCC(C(=O)N/N=C/c1ccc(OC)c(OC)c1)c1ccccc1` (stereo not drawn) [Compound 12-71] was tested, and the IC50 was ≤ 1000 nM. For `COc1cc(/C=N/NC(=O)C(OC)c2ccnc3ccccc23)cc(OC)c1OC` (stereo not drawn) [Compound 12-56], the IC50 was ≤ 1000 nM. With `COc1cc(/C=N/NC(=O)C(OC)c2ccccc2)cc(OC)c1O` (stereo not drawn) [Compound 12-24] the IC50 was ≤ 1000 nM. For `COCCOC(C(=O)N/N=C/c1cc(Br)c(OC)c(OC)c1)c1ccc2ccccc2c1` (stereo not drawn) [Compound 12-48], the IC50 was ≤ 1000 nM. With `CCOC(C(=O)N/N=C/c1cc(OC)c(Br)c(OC)c1)c1cccc2c1OCCO2` (stereo not drawn) [Compound 12-131] the IC50 was ≤ 1000 nM. With `COc1ccc(/C=N/NC(=O)Cc2ccc(OC)c(OC)c2)cc1OC` [Compound 12-90] the IC50 was ≤ 1000 nM. With `COc1cc(/C=N/NC(=O)C(OC)c2ccc(Cl)cc2)ccc1C` (stereo not drawn) [Compound 12-8] the IC50 was ≤ 1000 nM. In the case of `CCOC(C(=O)N/N=C/c1cc(OC)c(OC)c(OC)c1)c1ccc2c(c1)OCCO2` (stereo not drawn) [Compound 12-88], the IC50 is reported as ≤ 1000 nM. `COc1cc(/C=N/NC(=O)C(OC)c2cc3ccccc3s2)cc(Cl)c1OC` (stereo not drawn) [Compound 12-42] was tested, and the IC50 was ≤ 1000 nM. `COc1cc(/C(C)=N/NC(=O)C(OC)c2ccccc2)cc(OC)c1OC` (stereo not drawn) [Compound 12-69] was tested, and the IC50 was ≤ 1000 nM. In the case of `CCOC(C(=O)N/N=C/c1cc(Br)c(OC)c(OC)c1)c1cccc2c1OCCO2` (stereo not drawn) [Compound 12-129], the IC50 is reported as ≤ 1000 nM. In the case of `COc1ccc(C(OC)C(=O)N/N=C/c2ccc(OC)c(OC)c2)cc1` (stereo not drawn) [Compound 12-19], the IC50 is reported as ≤ 1000 nM. With `COc1cc(/C=N/NC(=O)C(OC)c2ccc(F)cc2)cc(Br)c1OC` (stereo not drawn) [Compound 12-3] the IC50 was ≤ 1000 nM. `COc1ccc(/C=N/NC(=O)C(OC)c2ccc(Cl)cc2)cc1OC` (stereo not drawn) [Compound 12-10] was tested, and the IC50 was ≤ 1000 nM. In the case of `CCOC(C(=O)N/N=C/c1cc(Br)c(OC)c(OC)c1)c1ccc2c(c1)OCCN2C` (stereo not drawn) [Compound 12-86], the IC50 is reported as ≤ 1000 nM. In the case of `CCOC(C(=O)N/N=C/c1cc(OC)c(Br)c(OC)c1)c1ccc2c(c1)OCCO2` (stereo not drawn) [Compound 12-87], the IC50 is reported as ≤ 1000 nM. With `COc1ccc(/C=N/NC(=O)C(OC)c2ccc3ccccc3c2)cc1OC` (stereo not drawn) [Compound 12-23] the IC50 was ≤ 1000 nM. In the case of `COCCOC(C(=O)N/N=C/c1cc(OC)c(Br)c(OC)c1)c1ccc2ccccc2c1` (stereo not drawn) [Compound 12-43], the IC50 is reported as ≤ 1000 nM. With `COc1cc(/C=N/NC(=O)C(OCCN(C)C)c2ccc3ccccc3c2)cc(OC)c1Br` (stereo not drawn) [Compound 12-123] the IC50 was ≤ 1000 nM. For `COc1cc(/C=N/NC(=O)C(Oc2ccccc2)c2ccccc2)cc(OC)c1OC` (stereo not drawn) [Compound 12-41], the IC50 was ≤ 1000 nM. With `CCOC(C(=O)N/N=C/c1cc(OC)c(Br)c(OC)c1)c1ccc2c(c1)OCCN2C` (stereo not drawn) [Compound 12-84] the IC50 was ≤ 1000 nM. For `COc1cc(/C=N/NC(=O)C(OC)c2ccc(N(C)C)cc2)cc(OC)c1OC` (stereo not drawn) [Compound 7-1, (E)-2-(4-(Dimethylamino)phenyl)-2-methoxy-N′-(3,4,5-trimethoxybenzylidene)acetohydrazide], the IC50 was ≤ 1000 nM. In the case of `COc1cc(/C=N/NC(=O)C(OC)c2ccc(Cl)cc2)cc(C#N)c1OC` (stereo not drawn) [Compound 12-14], the IC50 is reported as ≤ 1000 nM. With `COc1cc(/C=N/NC(=O)C(OC)c2ccccc2)cc(OC)c1` (stereo not drawn) [Compound 12-25] the IC50 was ≤ 1000 nM. For `COc1cc(/C=N/NC(=O)C(OC)c2ccc(Cl)cc2)cc(OC)c1OC` (stereo not drawn) [Compound 12-15], the IC50 was ≤ 1000 nM. With `COc1cc(/C=N/NC(=O)Cc2ccc(N3CCOCC3)cc2)cc(OC)c1Br` [Compound 12-139] the IC50 was ≤ 1000 nM. `CCOC(C(=O)N/N=C/c1cc(OC)c(C)c(OC)c1)c1cccc2c1OCCO2` (stereo not drawn) [Compound 12-128] was tested, and the IC50 was ≤ 1000 nM. For `COc1ccc(/C=N/NC(=O)C(SC)c2ccccc2)cc1OC` (stereo not drawn) [Compound 4-1, (E)-N′-(3,4-Dimethoxybenzylidene)-2-(methylthio)-2-phenylacetohydrazide], the IC50 was ≤ 1000 nM. In the case of `COc1cc(/C=N/NC(=O)C(c2ccccc2)c2ccccc2)cc(OC)c1OC` [Compound 3-1, (E)-2,2-Diphenyl-N′-(3,4,5-trimethoxybenzylidene)acetohydrazide], the IC50 is reported as ≤ 1000 nM. `COc1cc(/C=N/NC(=O)C(OCCN(C)C)c2ccc3c(c2)OCO3)cc(OC)c1Br` (stereo not drawn) [Compound 12-109] was tested, and the IC50 was ≤ 1000 nM. With `COc1cc(/C(C)=N/NC(=O)C(OC)c2ccc(-n3cccn3)cc2)cc(OC)c1OC` (stereo not drawn) [Compound 12-144] the IC50 was ≤ 1000 nM. With `COc1cc(/C=N/NC(=O)C(OC)c2cc3ccccc3s2)cc(OC)c1OC` (stereo not drawn) [Compound 8-1, (E)-2-(Benzo[b]thiophen-2-yl)-2-methoxy-N′-(3,4,5-trimethoxybenzylidene)acetohydrazide] the IC50 was ≤ 1000 nM. In the case of `COc1cc(/C=N/NC(=O)C(OC)c2ccc(Cl)cc2)cc(Cl)c1OC` (stereo not drawn) [Compound 12-6], the IC50 is reported as ≤ 1000 nM. With `CCOc1cc(/C=N/NC(=O)C(OC)c2ccc(Cl)cc2)cc(Br)c1OC` (stereo not drawn) [Compound 12-2] the IC50 was ≤ 1000 nM. In the case of `COc1cc(/C=N/NC(=O)C(OC)c2ccc(Cl)cc2)cc(Br)c1OC` (stereo not drawn) [Compound 12-4], the IC50 is reported as ≤ 1000 nM. For `COc1cc(/C=N/NC(=O)C(OC)c2cccc3ncccc23)cc(OC)c1OC` (stereo not drawn) [Compound 6-1, (E)-2-methoxy-2-(quinolin-5-yl)-N′-(3,4,5-trimethoxybenzylidene)acetohydrazide], the IC50 was ≤ 1000 nM. For `CCOc1ccc(/C=N/NC(=O)C(OC)c2ccccc2)cc1OCC` (stereo not drawn) [Compound 12-26], the IC50 was ≤ 1000 nM. `COc1cc(/C=N/NC(=O)Cc2ccccc2)cc(OC)c1OC` [Compound 12-89] was tested, and the IC50 was ≤ 1000 nM. For `COc1cc(Cl)c(/C=N/NC(=O)C(OC)c2ccc3c(c2)OCCO3)cc1OC` (stereo not drawn) [Compound 12-83], the IC50 was ≤ 1000 nM. For `COc1cc(/C=N/NC(=O)C(OC)c2ccccc2)ccc1C` (stereo not drawn) [Compound 12-20], the IC50 was ≤ 1000 nM. With `CCOC(C(=O)N/N=C/c1cc(Cl)c(OC)c(OC)c1)c1ccc2c(c1)OCCN2C` (stereo not drawn) [Compound 12-85] the IC50 was ≤ 1000 nM. In the case of `CCOC(C(=O)N/N=C/c1cc(OC)c(Cl)c(OC)c1)c1cccc2ncccc12` (stereo not drawn) [Compound 12-119], the IC50 is reported as ≤ 1000 nM. For `COc1cc(/C=N/N=C(\OC(=O)C(C)(C)C)C(OC)c2cccc3ccccc23)cc(OC)c1OC` (stereo not drawn) [Compound 5-1, (1Z, N′E)-2-Methoxy-2-(naphthalen-1-yl)-N′-(3,4,5-trimethoxybenzylidene)acetohydrazonic pivalic anhydride], the IC50 was ≤ 1000 nM. With `COc1cc(/C=N/NC(=O)C(OC)c2ccc3c(c2)OCO3)cc(Br)c1OC` (stereo not drawn) [Compound 12-116] the IC50 was ≤ 1000 nM. `COc1cc(/C=N/NC(=O)C(OC)c2ccc(Cl)cc2)ccc1C#N` (stereo not drawn) [Compound 12-22] was tested, and the IC50 was ≤ 1000 nM. With `COc1cc(/C=N/NC(=O)C(OC)c2cccc(N(C)C)c2)cc(OC)c1O` (stereo not drawn) [Compound 12-124] the IC50 was ≤ 1000 nM. In the case of `COc1ccc(/C=N/NC(=O)C(OC)c2ccc3ccccc3c2)cc1OC1CCCC1` (stereo not drawn) [Compound 12-18], the IC50 is reported as ≤ 1000 nM. With `CCOC(C(=O)N/N=C/c1cc(OC)c(OC)c(OC)c1)c1cccc2c1OCCO2` (stereo not drawn) [Compound 12-130] the IC50 was ≤ 1000 nM. In the case of `COc1ccc(/C=N/NC(=O)C(OC)c2ccc3ccccc3c2)cc1OC(F)F` (stereo not drawn) [Compound 12-16], the IC50 is reported as ≤ 1000 nM. In the case of `COCCOC(C(=O)N/N=C/c1cc(OC)c(OC)c(OC)c1)c1ccc2ccccc2c1` (stereo not drawn) [Compound 12-45], the IC50 is reported as ≤ 1000 nM.

From patent publication US9783521B2, “PDE10 inhibitors and related compositions and methods” (Omeros Corporation, priority 2008, dated 2017)
